{
  "source": "the NIST ThermoML archive (doi:10.1021/acs.jced.6b00424)",
  "experiment": "refractive index (Na D-line) (dimensionless)",
  "conditions": "293.15 K, Liquid, Standard Abbe refractometry",
  "note": "± gives the expanded uncertainty stated by the source.",
  "data": [
    {"smiles": "c1ccoc1", "note": "[furan]", "values": [
      {"measurement": "refractive index", "setting": "101.23 kPa", "result": "1.4218 ± 0.0004"}
    ]},
    {"smiles": "Cc1ccccc1", "note": "[toluene]", "values": [
      {"measurement": "refractive index", "setting": "100 kPa", "result": "1.4966 ± 0.0007"}
    ]}
  ]
}
